Experimental data from US20090124579A1, “Systems and Methods For Determination of Compounds for Stimulation or Inhibition of Neocalcification” (UNIVERSITY OF SOUTH CAROLINA, priority 2007, published 2009).

Experiments:
matrix vesicles (MV) = assay: Mineralization of matrix vesicles (MV) incubated in synthetic cartilage lymph (SCL), microplate-based biomineralization assay; type: biochemical, chicken
Experimental: Zn^2+ causes Anx-5 to bind to acidic phospholipids with even higher affinity than does Ca^2+; however, its effect is very different.
(§1) Mineral formation was measured by incubating MVs (40 μg protein/ml) or complex (60 μg/ml) in synthetic cartilage lymph and assayed by a microplate-based biomineralization modeling system and assay as described herein. MVs were isolated from chicken GP cartilage. The PS.Ca.Pi complex was synthesized from emulsions of PS prepared by sonication in a synthetic intracellular phosphate buffer. Where indicated, pure native placental human annexin 5 (Anx-H5) was added.
(§2) Incubation was in pH 7.5 SCL at 37° C., which follows a characteristic sigmoid pattern in which a definable lag period precedes discernible mineral formation. There then follows a period of rapid mineral formation, a transient period when the rate declines, and an extended period at a progressively slower rate.

[1] = molecular target: T1, Anx-H5.PS.Ca.Pi complexes (Homo sapiens, UniProt P08758); assay: Kinetics of mineralization of Anx-H5 containing nucleators with or without phosphoserine; type: biochemical; conditions: 100 μM phosphoserine; both Anx-H5-containing ACP and PS.Ca.Pi complexes
T1 sequence (P08758 2-320 limits assumed): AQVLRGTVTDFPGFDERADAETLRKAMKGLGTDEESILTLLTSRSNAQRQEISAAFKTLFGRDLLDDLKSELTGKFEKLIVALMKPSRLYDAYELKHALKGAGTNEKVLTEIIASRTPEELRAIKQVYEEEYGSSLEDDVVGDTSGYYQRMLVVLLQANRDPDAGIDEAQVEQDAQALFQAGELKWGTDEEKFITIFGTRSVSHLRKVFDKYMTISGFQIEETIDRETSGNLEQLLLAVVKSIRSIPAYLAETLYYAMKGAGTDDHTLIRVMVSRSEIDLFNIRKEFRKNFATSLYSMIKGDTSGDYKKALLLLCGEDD
From the text: Phosphoserine was examined as a test compound. Phosphoserine can occupy PS head-group binding sites in Anx-H5, acting as a competitive inhibitor of PS binding. […] Since Anx-H5 trimer formation occurs only on phospholipid bilayers, phosphoserine competes for PS binding sites in Anx-H5, interfering with trimer formation, and thereby inhibiting de novo mineralization.
FIG. 18 illustrates the results of in vitro assays showing the delay of onset of mineralization of Anx-H5 containing nucleators by incorporation of O-phospho-L-serine

PS.Ca.Pi complex = assay: Mineral formation by synthetic PS.Ca.Pi complex seeded into SCL, microplate-based biomineralization assay; type: biochemical
Experimental: as §1, §2
Results are illustrated in FIGS. 9A and 9B. […] To document that the effect of avian Anx-A5 could be equally matched by human Anx-H5, the kinetics of mineral formation were examined when both avian MV and the Mg^2+-containing PS.Ca.Pi complex were seeded into SCL in the absence and presence of purified native human placental Anx H5. […]

[2] = tested on: PS.PE.Ca.Pi and PS.Ca.Pi complexes; assay: Mineral formation by synthetic PS and PE containing Ca.Pi complexes in SCL; type: biochemical
Experimental: FIG. 15 illustrates the effect of Anx-H5 on mineral formation by synthetic PS and PE containing Ca.Pi complexes as determined through in vitro modeling of the system. Mineralization was measured by incubating the various complexes as shown (about 50 μg/ml) in SCL using a microplate-based biomineralization assay system. The complexes were prepared as described above in Example 3. Emulsions of PS or PS.PE (1:1) were generated by sonication to generate approximately 60 nm vesicles. Anx-H5 was added before CaCl2 was titrated to form the complex.

Anx-A5 Ca^2+ channel = molecular target: T2, Anx-A5 Ca^2+ channel (Gallus gallus, UniProt P17153); assay: Ca^2+ channel currents of MV or purified Anx-A5 fused with planar PS.PE (1:1) bilayers; type: biochemical, avian; conditions: MV or purified Anx-A5 in planar PS.PE (1:1) bilayers
T2 construct: from tissue; host or cells: avian cartilage
Experimental: To determine if the inhibitory effect of Zn^2+ on MV calcification was due to interaction with Anx-A5, experiments were conducted to investigate the nature of the MV Ca^2+ channel. […] When MVs or purified Anx-A5 were fused with planar PS.PE (1:1) bilayers, a multiconductance Ca^2+ channel was evident, as shown in FIG. 6A. […] The finding that Anx-A5 Ca^2+ channel gating is modulated by Zn^2+ raised the possibility that it may be an important regulator of MV Ca^2+ channel activity in vivo. Thus, it was desirable to determine how Anx-5 helps promote MV mineralization and how Zn^2+ affects the structure of Anx-A5.

Anx-H5-containing ACP = molecular target: T3, Anx-H5-containing ACP (Homo sapiens, UniProt P08758); assay: Mineral formation by Anx-H5-containing ACP in SCL; type: biochemical; conditions: low levels (5 μM) of Zn^2+ in SCL
T3 sequence (P08758 2-320 limits assumed): T1 sequence (P08758 2-320 limits assumed)

ACP = conditions: low levels of Zn^2+

c1cnc2c(c1)ccc1cccnc12 [1,10-phenanthroline, reference compound]
ability of Zn^2+-inhibited MV to mineralize (matrix vesicles (MV); metal ion chelator added to Zn^2+-inhibited MV): restored the ability to mineralize

N[C@@H](COP(=O)(O)O)C(=O)O [phosphoserine, O-phospho-L-serine]
time needed for onset of mineralization [1]: almost tripling

Anx-H5: pure native placental human annexin 5
ability of MV to induce and propagate mineral formation (matrix vesicles (MV); Anx-H5 added to freshly isolated MV): significantly enhanced
mineral formation induced by protein alone (PS.Ca.Pi complex; Anx-H5 by itself added to SCL, without PS): failed to induce any mineral formation
effect on PS.PE.Ca.Pi-induced mineralization ([2]; Anx-H5 incorporated into PS.PE.Ca.Pi complex): overcome this inhibitory effect of PE
effect on mineral formation of incorporation into PS.Ca.Pi complex ([2]; complexes about 50 μg/ml in SCL): obvious stimulatory effect

phosphatidylethanolamine [PE, reference compound]
ability of PS.Ca.Pi to nucleate mineral formation ([2]; equimolar amounts incorporated into PS.Ca.Pi (PS.PE 1:1)): profound inhibition

[Zn+2] [Zn^2+, zinc]
MV mineralization (matrix vesicles (MV); low levels of Zn^2+ (5 μM) in SCL): completely inhibit
Ca^2+ currents (Anx-A5 Ca^2+ channel): blocked
mineral formation by Anx-H5-containing ACP (Anx-H5-containing ACP): marked inhibition
ACP-induced mineral formation (ACP): weak inhibition

B1: Anx-A5: avian annexin 5 (avian cartilage) (protein, UniProt P17153 1-321, looked up)
Annexin A5: MAKYTRGTVTAFSPFDARADAEALRKAMKGMGTDEETILKILTSRNNAQRQEIASAFKTLFGRDLVDDLKSELTGKFETLMVSLMRPARIFDAHALKHAIKGAGTNEKVLTEILASRTPAEVQNIKQVYMQEYEANLEDKITGETSGHFQRLLVVLLQANRDPDGRVDEALVEKDAQVLFRAGELKWGTDEETFITILGTRSVSHLRRVFDKYMTISGFQIEETIDRETSGDLEKLLLAVVKCIRSVPAYFAETLYYSMKGAGTDDDTLIRVMVSRSEIDLLDIRHEFRKNFAKSLYQMIQKDTSGDYRKALLLLCGGDDE
activation of PS.Ca.Pi complex (PS.Ca.Pi complex; complex prepared from Mg^2+-containing phosphate buffer): synergistically activates
